According to ChEMBL document CHEMBL1138003, “Small molecule inhibitors of the CCR2b receptor. Part 1: Discovery and optimization of homopiperazine derivatives” (Bioorg Med Chem Lett, 2004):

Columns and labels:
[1] = molecular target: T1, C-C chemokine receptor type 2 (Homo sapiens, UniProt P41597); test: Percent inhibition of [125I]MCP-1 (Monocyte Chemoattractant Protein-1) binding to THP-1 cells at 100 uM; format: cell-based
Target sequence in this assay (P41597 whole entry, looked up): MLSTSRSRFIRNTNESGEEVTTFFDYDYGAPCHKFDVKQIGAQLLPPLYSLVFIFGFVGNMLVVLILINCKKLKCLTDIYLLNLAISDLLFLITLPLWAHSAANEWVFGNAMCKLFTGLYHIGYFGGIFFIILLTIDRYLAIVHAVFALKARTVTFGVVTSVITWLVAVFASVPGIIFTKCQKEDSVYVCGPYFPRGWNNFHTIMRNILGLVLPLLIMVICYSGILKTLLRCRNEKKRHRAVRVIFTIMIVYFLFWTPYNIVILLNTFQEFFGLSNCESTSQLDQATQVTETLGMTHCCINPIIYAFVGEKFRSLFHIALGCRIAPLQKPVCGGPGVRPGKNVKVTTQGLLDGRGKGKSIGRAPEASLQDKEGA

[2] = molecular target: T1, C-C chemokine receptor type 2; test: Concentration required to inhibit [125I]MCP-1 (Monocyte Chemoattractant Protein-1) binding to THP-1 cell; format: cell-based
Target sequence in this assay (P41597 whole entry): as the sequence (P41597 whole entry, looked up) above

[3] = molecular target: T1, C-C chemokine receptor type 2; test: Percent inhibition of […] (Monocyte Chemoattractant Protein-1) binding to THP-1 cells at 100 uM; format: cell-based
Target sequence in this assay (P41597 whole entry, looked up): as above

[4] = molecular target: T1, C-C chemokine receptor type 2; test: Concentration required to inhibit [125I]MCP-1 (Monocyte Chemoattractant Protein-1) binding to THP-1 cell; not determined; format: cell-based
Target sequence in this assay (P41597 whole entry): as the sequence (P41597 whole entry, looked up) above

[5] = Effective concentration in a chemotaxis assay; format: functional

SMILES	inhibition [1] [%]	IC50 [2] [µM]	inhibition [3] [%]	also measured
CS(=O)(=O)c1ccc(CN2CCCN(CCC(O)(c3cccc(Cl)c3)c3cccc(Cl)c3)CC2)cc1	28	–	–	–
CC(C)(C)c1ccc(C(O)(CCN2CCCN(Cc3ccc(S(C)(=O)=O)cc3)CC2)c2ccc(C(C)(C)C)cc2)cc1	39	–	–	–
Cc1cccc(C(O)(CCN2CCCN(Cc3ccc(S(C)(=O)=O)cc3)CC2)c2ccccc2)c1 (stereo not given)	92	16	–	–
COc1cccc(C(O)(CCN2CCCN(Cc3ccc(S(C)(=O)=O)cc3)CC2)c2cccc(OC)c2)c1	38	–	–	–
CS(=O)(=O)c1ccc(CN2CCCN(CCC(O)(c3ccc(F)cc3)c3cccc(O)c3)CC2)cc1 (stereo not given)	105	1.5	–	–
CS(=O)(=O)c1ccc(CN2CCCN(CCC(O)(c3ccc(Cl)cc3)c3ccc(Cl)cc3)CC2)cc1	94	11	–	–
CS(=O)(=O)c1ccc(CN2CCCN(CCC(O)(c3ccccc3)c3cccc(F)c3)CC2)cc1 (stereo not given)	95	12	–	–
CS(=O)(=O)c1ccc(CN2CCCN(CCC(O)(c3ccccc3)c3cccc(CO)c3)CC2)cc1 (stereo not given)	100	4	–	–
CN(C)c1ccc(C(O)(CCN2CCCN(Cc3ccc(S(C)(=O)=O)cc3)CC2)c2ccc(N(C)C)cc2)cc1	68	45	–	–
O=[N+]([O-])c1ccc(CN2CCCN(CCC(c3ccccc3)c3ccccc3)CC2)cc1	–	19	87	–
Clc1ccc(CN2CCCN(CCC(c3ccccc3)c3ccccc3)CC2)cc1	–	–	8	–
O=C(CN1CCCN(CCC(O)(c2ccccc2)c2cccc(O)c2)CC1)NNC(=O)c1cccs1 (stereo not given)	–	28	–	–
COc1ccc(CN2CCCN(CCC(c3ccccc3)c3ccccc3)CC2)cc1	–	–	7	–
c1ccc(C(CCN2CCCN(Cc3cccnc3)CC2)c2ccccc2)cc1	–	–	69	–
CS(=O)(=O)c1ccc(CN2CCCN(CCC(O)(c3cccc(F)c3)c3cccc(F)c3)CC2)cc1	75	34	–	–
Cc1csc(C(=O)NNC(=O)CN2CCCN(CCC(O)(c3ccccc3)c3cccc(O)c3)CC2)c1 (stereo not given)	–	6.4	–	–
CS(=O)(=O)c1ccc(CN2CCCN(CCC(O)(c3cccc(O)c3)c3cccc(O)c3)CC2)cc1	108	–	–	IC50 [4]: 1.5 µM
CS(=O)(=O)c1ccc(CN2CCCN(CCC(c3ccccc3)c3ccccc3)CC2)cc1	–	13	91	–
CS(=O)(=O)c1ccc(CN2CCCN(CCC(O)(c3ccccc3)c3ccccc3)CC2)cc1	104	4.1	–	–
CS(=O)(=O)c1ccc(CN2CCCN(CCC(O)(c3ccc(-c4ccccc4)cc3)c3ccc(-c4ccccc4)cc3)CC2)cc1	0	–	–	–
CCCN1CCCN(CCC(c2ccccc2)c2ccccc2)CC1	–	–	15	–
N#Cc1ccc(CN2CCCN(CCC(c3ccccc3)c3ccccc3)CC2)cc1	–	43	74	–
CS(=O)(=O)c1ccc(CN2CCCN(Cc3ccc(Cl)cc3)CC2)cc1	–	> 100	–	–

SMILES	inhibition [1] [%]	IC50 [2] [µM]	inhibition [3] [%]	also measured
CS(=O)(=O)c1ccc(CN2CCCN(CCC(O)(c3cccc(O)c3)c3cccc(F)c3)CC2)cc1 (stereo not given)	104	2.4	–	–
CS(=O)(=O)c1ccc(CN2CCCN(CCC(O)(c3ccc(C(F)(F)F)cc3)c3ccc(C(F)(F)F)cc3)CC2)cc1	38	–	–	–
CS(=O)(=O)c1ccc(CN2CCCN(CCC(O)(c3ccc(F)cc3)c3ccc(F)cc3)CC2)cc1	100	7	–	–
FC(F)(F)c1ccc(CN2CCCN(CCC(c3ccccc3)c3ccccc3)CC2)cc1	–	–	25	–
COC(=O)c1ccc(CN2CCCN(CCC(c3ccccc3)c3ccccc3)CC2)cc1	–	–	1	–
Cc1csc(C(=O)NNC(=O)CN2CCCN(Cc3ccc(Cl)cc3)CC2)c1	–	7.4	–	EC50 [5]: 9.5 µM
CS(=O)(=O)c1ccc(CN2CCCN(CCC(O)(c3ccccc3)c3cccc(N)c3)CC2)cc1 (stereo not given)	102	4.2	–	–
Cc1ccccc1C(O)(CCN1CCCN(Cc2ccc(S(C)(=O)=O)cc2)CC1)c1ccccc1C	0	–	–	–
CS(=O)(=O)c1ccc(CN2CCCN(CCC(O)(c3ccc(O)cc3)c3ccc(O)cc3)CC2)cc1	83	21	–	–
c1ccc(C(CCN2CCCN(Cc3ccncc3)CC2)c2ccccc2)cc1	–	11	87	–
O=C(CN1CCCN(Cc2ccc(Cl)cc2)CC1)NNC(=O)c1cccs1	–	30	–	–
NS(=O)(=O)c1ccc(CN2CCCN(CCC(O)(c3ccccc3)c3cccc(O)c3)CC2)cc1 (stereo not given)	–	1.5	–	–
CS(=O)(=O)c1ccc(CN2CCCN(CCC(O)(c3cccc(O)c3)c3cccc(Cl)c3)CC2)cc1 (stereo not given)	99	4.5	–	–
COc1ccccc1C(O)(CCN1CCCN(Cc2ccc(S(C)(=O)=O)cc2)CC1)c1ccccc1OC	14	–	–	–
CS(=O)(=O)c1ccc(CN2CCCN(CCC(O)(c3cccc(O)c3)c3cc(F)cc(F)c3)CC2)cc1 (stereo not given)	107	9.3	–	–
COc1cccc(C(O)(CCN2CCCN(Cc3ccc(S(C)(=O)=O)cc3)CC2)c2ccccc2)c1 (stereo not given)	97	7.9	–	–
c1ccc(C(CCN2CCCN(Cc3ccccn3)CC2)c2ccccc2)cc1	–	–	35	–
O=[N+]([O-])c1cccc(CN2CCCN(CCC(c3ccccc3)c3ccccc3)CC2)c1	–	–	35	–
CS(=O)(=O)c1ccc(CN2CCCN(CCC(O)(c3ccccc3)c3cccc(O)c3)CC2)cc1 (stereo not given)	105	0.71	–	–
O=[N+]([O-])c1ccccc1CN1CCCN(CCC(c2ccccc2)c2ccccc2)CC1	–	–	7	–
c1ccc(CN2CCCN(CCC(c3ccccc3)c3ccccc3)CC2)cc1	–	–	24	–
CNc1cccc(C(O)(CCN2CCCN(Cc3ccc(S(C)(=O)=O)cc3)CC2)c2ccccc2)c1 (stereo not given)	87	5	–	–
CS(=O)(=O)c1ccc(CN2CCCN(CCC(O)(c3ccc(Cl)cc3)c3cccc(O)c3)CC2)cc1 (stereo not given)	104	1.5	–	–
